What was measured:
mouse acute wound [1] = experiment: Wound healing and collagen synthesis in mouse acute wound (Test Example 2); assay type: in vivo
Protocol: The wound healing-promoting effect of the indirubin derivatives prepared in Examples 1 and 2, the indirubin derivative of Comparative Example 1 (10) and EGF, known as an existing wound healing agent, as a positive control group was investigated through animal experiments.
The hair on the back of 7-week-old C3H mouse that entered the resting period was removed and a 1.5×1.5 cm^2 wound was made on the hair-removed region. 20 μL of a vehicle (10% DMSO, 45% ethanol, 18% propylene glycol, 27% water) and the indirubin derivative of Comparative Example 1 (10) were applied to a control group and a comparison group, respectively, once daily for 12 days. For the positive control group, 100 μM EGF was applied once daily for 12 days. For a first test group, 20 μL of the indirubin derivative of Example 2 (A3051) was applied once daily for 12 days. For a second test group, 20 μL of the indirubin derivative of Example 1 (A3334) was applied once daily for 12 days.
The tissue of each experimental mouse was fixed by immersing in 4% paraformaldehyde, embedded in paraffin and then sliced into 4 μm thickness. The sliced tissue was deparaffinized, rehydrated and then stained with Masson's trichrome and Picrosirius red for evaluation of the degree of collagen synthesis. For Masson's trichrome staining, a slide was placed in Weigert's iron hematoxylin solution for 10 minutes and in Biebrich scarlet-acid fuchsin and aniline blue for 5 minutes each. For Picrosirius red staining, a slide was placed in Weigert's solution for 8 minutes and in Picrosirius red for 1 hour.

mouse acute wound [2] = experiment: Wound healing effect of mixtures in mouse acute wound (Test Example 4); assay type: in vivo; details: C3H mouse; Example 2 0.5 mM, Example 5 2.5 mM, 5 mM; 20 μL once daily for 12 days
HaCaT cells [3] = experiment: Cell migration of keratinocytes, Euodia sutchuenensis Dode extract and indirubin derivative mixtures (Test Example 5); assay type: cell-based, human; details: 18 hours
Protocol: Cell migration was compared after treating cells with the indirubin derivative of Example 1 (0.1 μM, 1 μM), the indirubin derivative of Example 2 (0.1 μM, 1 μM) or the mixtures of Examples 12 and 13 (0.1 μM and 1 μM indirubin derivative mixed with 1 μg/mL Euodia sutchuenensis Dode extract, respectively).
A non-treated control group (con), a group treated with the Euodia sutchuenensis Dode extract of Example 8 (1 μg/mL) alone (Euodia sutchuenensis Dode 1 μg/mL) and a positive control group treated with 100 μM VPA (valproic acid) were prepared.
Experiment was conducted as follows. First, HaCaT cells were cultured in a 12-well plate for 24 hours. The HaCaT cells are human keratinocytes which are known to play an important role in wound healing. DMEM containing 10% FBS was used. After the culturing for 24 hours was completed, the medium was replaced with DMEM containing 5% FBS and a scratch was made at the center of the cells using a 1000p (blue) tip. Then, after treating the scratched area with a sample, cell migration and motility was observed 18 hours later.
As the sample, the indirubin derivative of Example 1 (0.1 μM, 1 μM), the indirubin derivative of Example 2 (0.1 μM, 1 μM) or the mixtures of Examples 12 and 13 (0.1 μM and 1 μM indirubin derivative mixed with 1 μg/mL Euodia sutchuenensis Dode extract, respectively) was used. […]

mouse acute wound [4] = experiment: Wound healing effect of extract and indirubin derivative mixtures in mouse acute wound (Test Example 6); assay type: in vivo; details: mouse acute wound tissue, fluorescence staining
Protocol: Wound healing-promoting effect was investigated after treating an animal model with the indirubin derivative of Example 1 (0.5 mM), the indirubin derivative of Example 2 (0.5 mM) or the mixtures of Examples 12 and 13 (0.5 mM indirubin derivative mixed with 1 μg/mL Euodia sutchuenensis Dode extract).
The hair on the back of 7-week-old C3H mouse that entered the resting period was removed and a 1.5×1.5 cm^2 wound was made on the hair-removed region. A sample was applied to a positive control group, once daily for 12 days. After measuring wound size of the experimental animal on days 0 and 12, the wound tissue was fixed by immersing in 4% paraformaldehyde, embedded in paraffin and then sliced into 4 μm thickness. The sliced tissue was deparaffinized, rehydrated and then the degree of re-epithelialization was compared. Masson's trichrome staining and Picrosirius red staining were conducted for evaluation of the degree of collagen synthesis. For Masson's trichrome staining, a slide was immersed in Weigert's iron hematoxylin solution for 10 minutes and in Biebrich scarlet-acid fuchsin and aniline blue for 5 minutes each. […] The sliced skin tissue was fluorescence-stained using β-catenin, PCNA, keratin 14 and collagen I antibodies and was observed using a fluorescence microscope (FIG. 9a). […]

diabetic wound = experiment: Effect of treating diabetic wound (Test Example 9); assay type: in vivo; details: diabetes-induced mouse; for healing of the wound site: 0.8×0.8 cm^2 wound, 20 μL once daily for 14 days, VPA 500 mM; for re-epithelialization (H&E): 14 days
Protocol: 3-week-old male C57BL/6N mice (Koatech, South Korea) were used. After accustoming the mice for a week to normal feed, high-fat diet (Product Data—D12492; 60% kcal, hereinafter referred to as HFD) was given for 4 weeks. Then, a diabetes-induced animal model was prepared by intraperitoneally injecting 40 mg/kg streptozocin (Sigma) once daily for a week. The mice were kept in cages maintained at constant temperature (22±2° C.) and relative humidity (40-60%) with light/dark cycles of 12/12 hours.
6 mice of the normal control group and 6 mice per test group of the diabetes-induced animal model of Test Example 7 were prepared. The hair on the back was removed and a 0.8×0.8 cm^2 wound was made on the hair-removed region.
For the normal control group, only 20 μL of an emulsion solution (Kollipore®EL:Tween 80:PEG 400 at a mixing weight ratio of 80:6:14) was applied to the wound site once daily for 14 days. For the negative control group, only 20 μL of the emulsion solution (Kollipore®EL:Tween 80:PEG 400 at a mixing weight ratio of 80:6:14) was applied to the wound site once daily for 14 days. For the positive control group (VPA), 20 μL of a composition prepared by mixing 500 mM VPA in an emulsion solution was applied to the wound site once daily for 14 days.
For the first test group, 20 μL of A3334 (Example 1) was applied to the wound site once daily for 14 days. For the second test group, 20 μL of A3051 (Example 2) was applied to the wound site once daily for 14 days. Then, the wound site of each group was photographed and the wound area was measured (FIG. 14). On day 14, after euthanizing the mouse with carbon dioxide, the wound site tissue was harvested and the histological structure was observed.
Specifically, the wound site tissue obtained from the normal control group, the negative control group, the positive control group or the first or second test group was fixed by immersing in 4% paraformaldehyde, embedded in paraffin and then sliced into 4 μm thickness. The sliced tissue was deparaffinized, rehydrated and then stained with hematoxylin (purple) and eosin (pink) for observation of histological structure.
Specifically, the wound site tissue obtained from the normal control group, the negative control group, the positive control group or the first or second test group was fixed by immersing in 4% paraformaldehyde, embedded in paraffin and then sliced into 4 μm thickness. The sliced tissue was deparaffinized, rehydrated and then stained with Van Gieson's stain and Masson's trichrome for observation of histological structure. For the Van Gieson's staining, the sliced tissue was immersed in Weigert's solution for 10 minutes and in picrofuchsin solution for 2 minutes. For the Masson's trichrome staining, the sliced tissue was immersed in Weigert's iron hematoxylin solution for 10 minutes and in Biebrich scarlet-acid fuchsin and Aniline blue for 5 minutes each.
Specifically, the wound site tissue obtained from the normal control group, the negative control group, the positive control group or the first and second test groups was fixed by immersing in 4% paraformaldehyde and angiogenesis was observed.

HaCaT cells [5] = experiment: Cell motility of keratinocytes, indirubin derivative and low-molecular-weight compound mixtures (Test Example 3); assay type: cell-based, human; details: HaCaT scratch; 18 hours later; methyl vanillate 5 μM, hesperidin 1 μM, quercitrin 1 μM
Protocol: For analysis of wound healing effect, cell motility was compared for treatment with the indirubin derivative prepared in Example 2, the methyl vanillate of Example 5, the hesperidin of Example 6, the quercitrin of Example 7 and the mixtures prepared in Examples 9-11.
HaCaT cells, which are human keratinocytes playing an important role in wound healing, were cultured in a 12-well plate for 24 hours using DMEM containing 10% FBS. Then, after replacing the medium with DMEM containing 5% FBS, a scratch was made at the center of the cells using a 1000p (blue) tip. Then, after treating the scratched area with each of the indirubin derivative prepared in Example 2, the methyl vanillate of Example 5, the hesperidin of Example 6, the quercitrin of Example 7 and the mixtures prepared in Examples 9-11 at a concentration of 1 μM or 5 μM, cell motility was observed 18 hours later.
Specifically, the concentration of the indirubin derivative prepared in Example 2, the hesperidin of Example 6 and the quercitrin of Example 7 was 1 μM, the concentration of the methyl vanillate of Example 5 was 5 μM, and the mixtures prepared in Examples 9-11 were prepared by mixing 1 μM indirubin derivative with 5 μM methyl vanillate, 1 μM hesperidin or 1 μM quercitrin.
The control group (control) means non-treated keratinocytes. […]

[6] = C3H mouse acute wound, once daily for 12 days, vs EGF

CO/N=C1/C(=C2/C(=O)Nc3cc(Cl)c(Cl)cc32)Nc2ccccc21 [Example 2, 5,6-dichloroindirubin-3′-methoxime]
quantity of collagen (Masson's trichrome, Picrosirius red, van Gieson's stain) (mouse acute wound [1]; C3H mouse acute wound tissue, vs control group, Comparative Example 1, positive control group): remarkably increases the quantity of collagen
re-epithelialization of acute wound (mouse acute wound [1]; [6]): re-epithelialized comparably to or faster than the positive control group EGF
scar-reducing effect, repair of the epidermal layer of skin (mouse acute wound [1]; [6]): very effective in reducing scarring
wound repair effect as compared to the positive control group EGF (mouse acute wound [1]; C3H mouse, 1.5×1.5 cm^2 wound, 20 μL once daily for 12 days, EGF 100 μM): 2-6 times
acute wound healing as compared to the control group or the positive control group (mouse acute wound [2]): healed quickly
recovery of cell migration rate (%) as compared to the control group (HaCaT cells [3]; first value of 'respectively' (0.1 μM indirubin derivative; mixture with 1 μg/mL extract)): 50%
recovery of cell migration rate (%) as compared to the control group (HaCaT cells [3]; second value of 'respectively' (1 μM indirubin derivative; mixture with 1 μg/mL extract)): 114%
expression of β-catenin, PCNA, keratin 14 and collagen I (mouse acute wound [4]): slightly lower as compared to the positive control group
angiogenesis around the wound site (diabetic wound): increased angiogenesis
healing of the wound site (diabetic wound): healing of the wound site was promoted similarly to the normal control group
re-epithelialization (H&E) (diabetic wound): re-epithelialization occurred quickly
collagen synthesis (Van Gieson's stain, Masson's trichrome) (diabetic wound; vs normal, negative and positive control group (VPA)): increased collagen synthesis

COc1ccc([C@@H]2CC(=O)c3c(O)cc(O[C@@H]4O[C@H](CO[C@@H]5O[C@@H](C)[C@H](O)[C@@H](O)[C@H]5O)[C@@H](O)[C@H](O)[C@H]4O)cc3O2)cc1O [Example 6, Hesperidin]
cell motility compared with the control group (HaCaT cells [5]): no difference in cell motility

COC(=O)c1ccc(O)c(OC)c1 [Example 5, Methyl vanillate, reference compound]
cell motility compared with the control group (HaCaT cells [5]): no difference in cell motility
acute wound healing as compared to the control group or the positive control group (mouse acute wound [2]): healed quickly

CCCC(CCC)C(=O)O [VPA, valproic acid, reference compound]
healing of the wound site (diabetic wound): wound healing was delayed similarly to the negative control group
re-epithelialization (H&E) (diabetic wound): re-epithelialization did not occur even after 14 days
